Reference: PubChem BioAssay (NCI)
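Cells were grown in 96-well plates and exposed to each compound for 48 hours at five concentrations; endpoints were interpolated linearly between bracketing concentrations, or set to the highest concentration if not reached. GI50 is the concentration that inhibits growth by half. At the TGI there is no net growth.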

What was measured:
Experiment in all cases: NCI tumour cell line growth inhibition, 48 h
MDA-MB-231 breast = tested on: MDA-MB-231 breast
MCF7 breast = tested on: MCF7 breast
OVCAR-4 ovarian = tested on: OVCAR-4 ovarian
SK-MEL-2 melanoma = tested on: SK-MEL-2 melanoma
A498 renal = tested on: A498 renal
BT-549 breast = tested on: BT-549 breast
M14 melanoma = tested on: M14 melanoma
MDA-MB-435 = tested on: MDA-MB-435
RXF 393 renal = tested on: RXF 393 renal
786-0 renal = tested on: 786-0 renal

Compound	TGI (MDA-MB-231 breast) [µM]	TGI (MCF7 breast) [µM]	TGI (OVCAR-4 ovarian) [µM]	TGI (SK-MEL-2 melanoma) [µM]	TGI (A498 renal) [µM]	TGI (BT-549 breast) [µM]	TGI (M14 melanoma) [µM]	TGI (MDA-MB-435) [µM]	TGI (RXF 393 renal) [µM]	TGI (786-0 renal) [µM]	GI50 (MDA-MB-231 breast) [µM]
CCC(CO)Nc1nc(NCc2ccccc2)c2ncn(C(C)C)c2n1 (stereo not given)	> 94.5	> 57.3	> 58.1	38.9	77.3	> 55.3	32.7	> 68.1	20.9	> 80.7	
c1ccc2c(c1)Sc1nccc3ccnc-2c13	> 100	> 100	> 100	> 100	> 100	> 100	> 100	> 100	> 100	> 100	
Cc1[nH]c(=O)nc(NCCNCCO)c1C(=O)Nc1cccc2cc3ccccc3cc12	> 100	> 44	> 100	> 100	> 100	> 100	> 100	> 100	> 100	> 100	
Cc1cc2c(O)c(c1)CN(CC(=O)O)Cc1cc(C)cc(c1O)CN(CC(=O)O)Cc1cc(C)cc(c1O)CN(CC(=O)O)C2	> 100	> 100	> 100	> 100	> 100	> 100	> 100	> 100	> 100	> 100	
COc1cc(C(c2c(O)c3ccccc3oc2=O)c2c(O)c3ccccc3oc2=O)cc(Br)c1O	32.8	31.3	30.9	42.5	29.4	32.5	31.4	51.6	39.6	37.8	
O=c1c(Cc2ccc(Cl)cc2)nnc2sc(-c3ccc(-c4ccc(F)c(Cl)c4)o3)nn12	> 100	> 100	> 100	> 100	> 100	> 100	> 100	> 100	> 100	> 100	
Cc1cc(S(=O)(=O)Nc2n[nH]c(-c3ccccn3)n2)c(S)cc1Cl	> 100	> 100	65.5	63.9	30.5	79.6	44.5	70.6	34.1	72.7	
CC(C)C(CC(=O)OCC(CO)OC(=O)CC(C(C)C)C(C)C)C(C)C (stereo not given)	33.9	33.5	33.4	35.2	29.8	33.1	29.5	28.1	30.8	27.9	
CCn1c2ccc(C(=O)CCCN3CCCCC3)cc2c2cc(C(=O)CCCN3CCCCC3)ccc21	4.74	4.94	5.65	3.52	10.3	35	3.6	3.3	7.31	2.78	
O=C1C=CC=C/C1=C1\N=C(c2ccccc2OCC(=O)c2ccccc2)SS1	> 100	> 100	> 100	> 100	> 100	> 100	> 100	> 100	> 100	> 100	
COC(=O)C1C(C(=O)OC)C2(OC(c3ccc(Cl)cc3)=CC2=O)C12OC(c1ccc(Cl)cc1)=CC2=O (stereo not given)	78.6	64.6	64.1	55.3	76.1	42.5	42.8	> 100	33.2	41	
CC(C)C(=O)C(C)(C)CCc1ccccn1	> 100	> 100	> 100	> 100	> 100	> 100	> 100	> 100	> 100	> 100	
C=C1C(OC2O[C@@H]3O[C@@]4(C)CC[C@H]5[C@H](C)CC[C@@H](C2=C)[C@@]35O4)O[C@@H]2O[C@@]3(C)CC[C@H]4[C@H](C)CC[C@@H]1[C@@]24O3 (stereo not given in full)	> 50	> 50	> 50	> 50	> 50	> 50	> 50	> 50	> 50	> 50	
O=C(O)c1cccc2cccc(-c3cccc4cccc(C(=O)O)c34)c12	> 100	> 100	> 100	> 100	> 100	> 100	> 100	> 100	> 100	> 100	
O=C(/C=C/C(=O)N1CCCC1)N1CCCC1	> 100	> 100	> 100	> 100	> 100	> 100	> 100	> 100	> 100	> 100	
CC(C)c1cccc(C(C)C)c1NC(=O)/C(CC(=O)CC(c1ccccc1)c1c(O)c2ccccc2oc1=O)=N/O (stereo not given)	> 100	> 100	> 100	> 100	> 100	> 100	> 100	> 100	> 100	> 100	

Compound	TGI (MDA-MB-231 breast) [µM]	TGI (MCF7 breast) [µM]	TGI (OVCAR-4 ovarian) [µM]	TGI (SK-MEL-2 melanoma) [µM]	TGI (A498 renal) [µM]	TGI (BT-549 breast) [µM]	TGI (M14 melanoma) [µM]	TGI (MDA-MB-435) [µM]	TGI (RXF 393 renal) [µM]	TGI (786-0 renal) [µM]	GI50 (MDA-MB-231 breast) [µM]
CCC(O)(Cc1ccc(OC)cc1)c1ccc(OC)cc1 (stereo not given)	> 100	> 100	> 100	> 100	> 100	> 100	> 100	> 100	> 100	> 100	
O=S(=O)(c1cc(Cl)ccc1Cl)n1ccnc1	51.2	> 100	> 100	> 100	95	> 100	> 100	37	74.1	> 100	
CN(C)CCCNC(=O)c1cc(NC(=O)c2cc(NC(=O)CCCn3c4ccccc4c4ccccc43)cn2C)cn1C	20.9	39	35.5	> 79.9	44.3	46.7	12.3	> 61.7	37.8	28.7	4.45
CC1CCC2(NC1)OC1CC3C4CC=C5CC(OC6OC(CO)C(OC7OC(C)C(O)C(O)C7O)C(O)C6OC6OC(C)C(O)C(O)C6O)CCC5(C)C4CCC3(C)C1C2C (stereo not given)	8.93	4.88	7.27	9.07	11.8	30.3	6.39	5	26.5	3.72	
N#CC1(O)CCCCCCCCCCC1	> 100	> 100	> 100	> 100	> 100	> 100	> 100	> 100	> 100	> 100	
Cc1cc(S(=O)(=O)/N=C(/C(=C=[N-])C#N)[n+]2ccc(N(C)C)cc2)c(SCC(=O)O)cc1Cl	> 100	> 100	> 100	> 100	> 100	> 100	> 100	> 100	> 100	> 100	
OCCOCn1nncc1Cn1ncc2c(SCc3ccccc3)ncnc21	> 100	> 100	> 100	> 100	> 100	> 100	> 100	> 100	> 100	> 100	
Cc1cc(C)c(S(=O)(=O)N(CCCN)OCCCON(CCCN)S(=O)(=O)c2c(C)cc(C)cc2C)c(C)c1	3.31	3.41	5.22	3.29	10.7	8.64	3.21	4.21	15.7	5.86	
Cc1c(CN2CCN(C)CC2)c(CN2CCN(C)CC2)c(C)n1-c1ccc(Cl)cc1	> 100	> 100	> 100	46.2	51.2	> 100	32	62.7	> 100	46.4	
C[C@]12CCC(=O)[C@@H](CCC3=CC(=O)C=CC3=O)[C@@H]1CCC2=O	49.2	37.2	53.2	27.1	39.6	30.2	59.1	> 56.2	5.43	41.1	
O=C(CCc1cc(O)cc(O)c1)NCCCNC(=O)CCc1cc(O)cc(O)c1	> 100	> 100	> 100	> 100	> 100	> 100	> 100	> 100	> 100	> 100	
CS(=O)(=O)Nc1ccc2c(c1)N(S(C)(=O)=O)CC2CCl (stereo not given)	> 100	> 100	> 100	> 100	> 100	> 100		> 100	> 100	> 100	
O=c1nc2c(c(-c3ccc(Br)cc3)[nH]1)COC/C2=C\c1ccc(Br)cc1	> 50	> 50	> 50	> 50	> 50	> 50	> 50	> 50	> 50	> 50	
C/C=C(/C)C(=O)OC1CC(C)[C@H]2CC(=O)C(C)=C2CC1C(C)(C)OC(C)=O (stereo not given in full)	> 100	> 100	68	27	41.1	85.4	63.8	68.6	54.6	> 100	
NC(=O)c1csc(C2(O)COC(CO)C2O)n1 (stereo not given)	> 100	> 100	> 100	> 100	> 100	> 100	> 100	> 100	> 100	> 100	
O=C1C=CC(=O)N1n1c(-c2ccccc2)n[nH]c1=O	> 100	> 100	> 100	> 100	> 100	> 100	> 100	> 100	> 100	> 100	
